Key:
insomnia = test: Clinical case reports: treatment of patients with insomnia; type: in vivo, human
REM sleep = details: background statement; cited from earlier work
allergic rhinitis = test: Clinical case report: allergic rhinitis in a patient with insomnia; type: in vivo, human; details: Example 1; ebastine 20 mg once a day, about 3 months
[1] = tested on: anti-IgE-induced release of prostaglandin D2 (PGD2) and leukotrienes C4/D4; release of cytokines; details: background statement, cited from earlier work
[2] = Clinical case reports: tolerability and side effects in patients with insomnia
Protocol: A patient had insomnia for more than 2 months before they were provided with medications.
A patient had insomnia for more than 3 months. […] After that, they were treated with the combination of ebastine (10 mg) and alprazolam (0.4 mg) daily.

SMILES: Cc1nnc2n1-c1ccc(Cl)cc1C(c1ccccc1)=NC2 [alprazolam, 8-chloro-1-methyl-6-phenyl-4H-s-triazolo[4,3-a] [1,4]benzodiazepine]
- chronic insomnia along with depression, improvement (insomnia; Example 2, person, alprazolam 0.8 mg twice daily, 2 months): no improvement
- REM latency (REM sleep): increases
- length of REM periods and frequency of REM burst activities (REM sleep): significantly decreases

SMILES: CC(C)(C)c1ccc(C(=O)CCCN2CCC(OC(c3ccccc3)c3ccccc3)CC2)cc1 [ebastine, 4-diphenylmethoxy-1-[3-(4-tert-butylbenzoyl)-propyl] piperidine]
- insomnia (difficulty of falling to asleep) improvement (insomnia; Example 1, person, ebastine 20 mg once a day, about 3 months): no improvement
- allergic rhinitis improvement (allergic rhinitis): only improved marginally
- anti-IgE-induced release of prostaglandin D2 (PGD2) and leukotrienes C4/D4 (LTC4/D4) [1]: significantly inhibits
- release of cytokines, including GM-CSF, tumour necrosis factor-a and interleukin-8 [1]: inhibited

SMILES: Cc1ccc(-c2nc3ccc(C)cn3c2CC(=O)N(C)C)cc1 [zolpidem]
- tolerability (side effects of headache and dizziness) ([2]; Example 3, person, zolpidem 10 mg daily for 1 month): could not tolerate the side effects of headache and dizziness

SMILES: CN1CCN(C(=O)O[C@H]2c3nccnc3C(=O)N2c2ccc(Cl)cn2)CC1 [eszopiclone]
- tolerability (side effects of headache and dizziness) ([2]; Example 3, eszopiclone 1 mg daily for 2 weeks): could not tolerate the side effects of headache and dizziness
- tolerability (adverse reaction of headache) ([2]; Example 4, person, eszopiclone 1 mg daily for one week): could not tolerate its adverse reaction of headache

SMILES: CC(C)(C(=O)O)c1ccc(C(=O)CCCN2CCC(OC(c3ccccc3)c3ccccc3)CC2)cc1 [carebastine]
- release of PGD2 ([1]; metabolite of ebastine): inhibits
